# Data taken from patent publication US20230312587A1, “PTERIDINONE COMPOUNDS AND USES THEREOF” (Vertex Pharmaceutical Incorporated, priority 2018, published 2023).
# System: β-catenin-TCF-mediated reporter transcription activity in Colo 205 cells
# Test: Colo 205 reporter assay (TCF/LEF luciferase)
# Assay type: cell-based
# Details: Colo 205 TCF/LEF luciferase reporter, five hours after addition of compound; read-out: TCF reporter Colo205 IC50
# Procedure, shortened: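 Luciferase signal from a TCF/LEF-driven reporter, stably integrated in Colo 205 colon cancer cells, was measured 5 h after compound addition.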
row,Structure (SMILES),IC50
1,Cc1nc(NCc2cnn(Cc3cccnc3C(F)(F)F)c2)nc2c1NC(=O)[C@H](C)N2C [Compound 183],< 300 nM

# Same assay, conditions: Homo sapiens, COLO 205, 5 h, Colo 205 TCF/LEF luciferase reporter, five hours after addition of compound; read-out: TCF reporter Colo205 IC50
row,IC50,Structure (SMILES)
1,< 300 nM,"Cc1nc(NCc2cnn(C3CCN(c4cc(F)cc(F)c4)CC3)c2)nc2c1NC(=O)[C@H](C)N2C [Compound 179, (7S)-2-(((1-(1-(3,5-difluorophenyl)piperidin-4-yl)-1H-pyrazol-4-yl)methyl)amino)-4,7,8-trimethyl-7,8-dihydropteridin-6(5H)-one]"
2,< 300 nM,"Cc1nc(NCc2cnn(Cc3ccnc(F)c3)c2)nc2c1NC(=O)[C@H](C)N2C [Compound 180, (7S)-2-(((1-((2-fluoropyridin-4-yl)methyl)-1H-pyrazol-4-yl)methyl)amino)-4,7,8-trimethyl-7,8-dihydropteridin-6(5H)-one]"
3,300 to 1000 nM,"Cc1nc(NCc2cnn(Cc3ccnc(Cl)c3)c2)nc2c1NC(=O)[C@H](C)N2C [Compound 185, (7S)-2-(((1-((2-chloropyridin-4-yl)methyl)-1H-pyrazol-4-yl)methyl)amino)-4,7,8-trimethyl-7,8-dihydropteridin-6(5H)-one]"
4,< 300 nM,"CCn1nc(C(F)(F)F)cc1Cn1cc(CNc2nc(C)c3c(n2)N(C)[C@@H](C)C(=O)N3)cn1 [Compound 189, (7S)-2-(((1-((1-ethyl-3-(trifluoromethyl)-1H-pyrazol-5-yl)methyl)-1H-pyrazol-4-yl)methyl)amino)-4,7,8-trimethyl-7,8-dihydropteridin-6(5H)-one]"
5,300 to 1000 nM,"Cc1nc(NCc2cnn(Cc3cc(C(F)(F)F)n(C)n3)c2)nc2c1NC(=O)[C@H](C)N2C [Compound 190, (7S)-4,7,8-trimethyl-2-(((1-((1-methyl-5-(trifluoromethyl)-1H-pyrazol-3-yl)methyl)-1H-pyrazol-4-yl)methyl)amino)-7,8-dihydropteridin-6(5H)-one]"
6,< 300 nM,"Cc1nc(NCc2cnn(Cc3ccc(Cl)nc3)c2)nc2c1NC(=O)[C@H](C)N2C [Compound 194, (7S)-2-(((1-((6-chloropyridin-3-yl)methyl)-1H-pyrazol-4-yl)methyl)amino)-4,7,8-trimethyl-7,8-dihydropteridin-6(5H)-one]"
7,300 to 1000 nM,"Cc1nc(NCc2cnn(Cc3ccc(N(C)C)nc3)c2)nc2c1NC(=O)[C@H](C)N2C [Compound 196, (7S)-2-(((1-((6-(dimethylamino)pyridin-3-yl)methyl)-1H-pyrazol-4-yl)methyl)amino)-4,7,8-trimethyl-7,8-dihydropteridin-6(5H)-one]"
8,1000 to 5000 nM,"Cc1nc(NCc2cnn(Cc3cccnc3)c2)nc2c1NC(=O)[C@H](C)N2C [Compound 198, (7S)-4,7,8-trimethyl-2-(((1-(pyridin-3-ylmethyl)-1H-pyrazol-4-yl)methyl)amino)-7,8-dihydropteridin-6(5H)-one]"
9,< 300 nM,"Cc1cc(Cn2cc(CNc3nc(C)c4c(n3)N(C)[C@@H](C)C(=O)N4)cn2)cnc1C(F)(F)F [Compound 199, (7S)-4,7,8-trimethyl-2-(((1-((5-methyl-6-(trifluoromethyl)pyridin-3-yl)methyl)-1H-pyrazol-4-yl)methyl)amino)-7,8-dihydropteridin-6(5H)-one]"
10,≥ 5000 nM,"Cc1nc(NCc2cnn(Cc3ccnc(O)c3)c2)nc2c1NC(=O)[C@H](C)N2C [Compound 202, (7S)-2-(((1-((2-hydroxypyridin-4-yl)methyl)-1H-pyrazol-4-yl)methyl)amino)-4,7,8-trimethyl-7,8-dihydropteridin-6(5H)-one]"
11,< 300 nM,"COc1cc(Cn2cc(CNc3nc(C)c4c(n3)N(C)[C@@H](C)C(=O)N4)cn2)ccn1 [Compound 203, (7S)-2-(((1-((2-methoxypyridin-4-yl)methyl)-1H-pyrazol-4-yl)methyl)amino)-4,7,8-trimethyl-7,8-dihydropteridin-6(5H)-one]"
12,< 300 nM,"Cc1nc(NCc2cnn(Cc3cncc(C(F)(F)F)c3)c2)nc2c1NC(=O)[C@H](C)N2C [Compound 206, (7S)-4,7,8-trimethyl-2-(((1-((5-(trifluoromethyl)pyridin-3-yl)methyl)-1H-pyrazol-4-yl)methyl)amino)-7,8-dihydropteridin-6(5H)-one]"
13,< 300 nM,"Cc1nc(NCc2cnn(Cc3cnc(C(F)(F)F)c(F)c3)c2)nc2c1NC(=O)[C@H](C)N2C [Compound 209, (7S)-2-(((1-((5-fluoro-6-(trifluoromethyl)pyridin-3-yl)methyl)-1H-pyrazol-4-yl)methyl)amino)-4,7,8-trimethyl-7,8-dihydropteridin-6(5H)-one]"
14,< 300 nM,"COc1cc(Cn2cc(CNc3nc(C)c4c(n3)N(C)[C@@H](C)C(=O)N4)cn2)cnc1C(F)(F)F [Compound 213, (7S)-2-(((1-((5-methoxy-6-(trifluoromethyl)pyridin-3-yl)methyl)-1H-pyrazol-4-yl)methyl)amino)-4,7,8-trimethyl-7,8-dihydropteridin-6(5H)-one]"

# Further lines, the compound ahead of its results:
row,Structure (SMILES),IC50
1,"Cc1nc(NCc2cnn(Cc3ccc4c(c3)OCO4)c2)nc2c1NC(=O)[C@H](C)N2C [Compound 181, (7S)-2-(((1-(benzo[d][1,3]dioxol-5-ylmethyl)-1H-pyrazol-4-yl)methyl)amino)-4,7,8-trimethyl-7,8-dihydropteridin-6(5H)-one]",< 300 nM
2,"Cc1nc(NCc2cnn(Cc3cnccc3C(F)(F)F)c2)nc2c1NC(=O)[C@H](C)N2C [Compound 182, (7S)-4,7,8-trimethyl-2-(((1-((4-(trifluoromethyl)pyridin-3-yl)methyl)-1H-pyrazol-4-yl)methyl)amino)-7,8-dihydropteridin-6(5H)-one]",< 300 nM
3,"Cc1nc(NCc2cnn(Cc3cccc(C(F)(F)F)n3)c2)nc2c1NC(=O)[C@H](C)N2C [Compound 184, (7S)-4,7,8-trimethyl-2-(((1-((6-(trifluoromethyl)pyridin-2-yl)methyl)-1H-pyrazol-4-yl)methyl)amino)-7,8-dihydropteridin-6(5H)-one]",< 300 nM
4,"Cc1nc(NCc2cnn(Cc3ccncc3C(F)(F)F)c2)nc2c1NC(=O)[C@H](C)N2C [Compound 187, (7S)-4,7,8-trimethyl-2-(((1-((3-(trifluoromethyl)pyridin-4-yl)methyl)-1H-pyrazol-4-yl)methyl)amino)-7,8-dihydropteridin-6(5H)-one]",< 300 nM
5,"CCn1ccnc1Cn1cc(CNc2nc(C)c3c(n2)N(C)[C@@H](C)C(=O)N3)cn1 [Compound 191, (7S)-2-(((1-((1-ethyl-1H-imidazol-2-yl)methyl)-1H-pyrazol-4-yl)methyl)amino)-4,7,8-trimethyl-7,8-dihydropteridin-6(5H)-one]",1000 to 5000 nM
6,"Cc1nc(Cn2cc(CNc3nc(C)c4c(n3)N(C)[C@@H](C)C(=O)N4)cn2)c(C)o1 [Compound 193, (7S)-2-(((1-((2,5-dimethyloxazol-4-yl)methyl)-1H-pyrazol-4-yl)methyl)amino)-4,7,8-trimethyl-7,8-dihydropteridin-6(5H)-one]",300 to 1000 nM
7,"C[C@H]1C(=O)Nc2cnc(NCc3cnn(Cc4ccc(C(F)(F)F)nc4)c3)nc2N1C [Compound 195, (7S)-7,8-dimethyl-2-(((1-((6-(trifluoromethyl)pyridin-3-yl)methyl)-1H-pyrazol-4-yl)methyl)amino)-7,8-dihydropteridin-6(5H)-one]",300 to 1000 nM
8,"COc1ccc(Cn2cc(CNc3nc(C)c4c(n3)N(C)[C@@H](C)C(=O)N4)cn2)cn1 [Compound 197, (7S)-2-(((1-((6-methoxypyridin-3-yl)methyl)-1H-pyrazol-4-yl)methyl)amino)-4,7,8-trimethyl-7,8-dihydropteridin-6(5H)-one]",< 300 nM
9,"Cc1nc(NCc2cnn(Cc3ccc(C(F)(F)F)cn3)c2)nc2c1NC(=O)[C@H](C)N2C [Compound 200, (7S)-4,7,8-trimethyl-2-(((1-((5-(trifluoromethyl)pyridin-2-yl)methyl)-1H-pyrazol-4-yl)methyl)amino)-7,8-dihydropteridin-6(5H)-one]",300 to 1000 nM
10,"Cc1nc(NCc2cnn(Cc3cc(C(F)(F)F)ccn3)c2)nc2c1NC(=O)[C@H](C)N2C [Compound 201, (7S)-4,7,8-trimethyl-2-(((1-((4-(trifluoromethyl)pyridin-2-yl)methyl)-1H-pyrazol-4-yl)methyl)amino)-7,8-dihydropteridin-6(5H)-one]",300 to 1000 nM
11,"Cc1nc(NCc2cnn(Cc3ccnc(C#N)c3)c2)nc2c1NC(=O)[C@H](C)N2C [Compound 204, (7S)-4-((4-(((4,7,8-trimethyl-6-oxo-5,6,7,8-tetrahydropteridin-2-yl)amino)methyl)-1H-pyrazol-1-yl)methyl)picolinonitrile]",≥ 5000 nM
12,"Cc1cc(F)ncc1Cn1cc(CNc2nc(C)c3c(n2)N(C)[C@@H](C)C(=O)N3C)cn1 [Compound 205, (7S)-2-(((1-((6-fluoro-4-methylpyridin-3-yl)methyl)-1H-pyrazol-4-yl)methyl)amino)-4,5,7,8-tetramethyl-7,8-dihydropteridin-6(5H)-one]",300 to 1000 nM
13,"Cc1nc(NCc2cnn(Cc3cncc(F)c3)c2)nc2c1NC(=O)[C@H](C)N2C [Compound 208, (7S)-2-(((1-((5-fluoropyridin-3-yl)methyl)-1H-pyrazol-4-yl)methyl)amino)-4,7,8-trimethyl-7,8-dihydropteridin-6(5H)-one]",< 300 nM
14,"COc1cc(C(F)(F)F)ncc1Cn1cc(CNc2nc(C)c3c(n2)N(C)[C@@H](C)C(=O)N3)cn1 [Compound 210, (7S)-2-(((1-((4-methoxy-6-(trifluoromethyl)pyridin-3-yl)methyl)-1H-pyrazol-4-yl)methyl)amino)-4,7,8-trimethyl-7,8-dihydropteridin-6(5H)-one]",< 300 nM
15,"Cc1nc(NCc2cnn(Cc3ccc(C(C)(C)C)nc3)c2)nc2c1NC(=O)[C@H](C)N2C [Compound 211, (7S)-2-(((1-((6-(tert-butyl)pyridin-3-yl)methyl)-1H-pyrazol-4-yl)methyl)amino)-4,7,8-trimethyl-7,8-dihydropteridin-6(5H)-one]",300 to 1000 nM
16,"Cc1nn(Cc2ccc(C(F)(F)F)nc2)c(C)c1CNc1nc(C)c2c(n1)N(C)[C@@H](C)C(=O)N2 [Compound 212, (7S)-2-(((3,5-Dimethyl-1-((6-(trifluoromethyl)pyridin-3-yl)methyl)-1H-pyrazol-4-yl)methyl)amino)-4,7,8-trimethyl-7,8-dihydropteridin-6(5H)-one]",≥ 5000 nM
